# What was measured:
# Type in all cases: in vivo, mouse
# [1] = system: db/^+m mice; experiment: Rectal temperature, db/+m mice; details: (±)-baclofen 2.7 mg/dl in drinking water for 5 weeks
# Experimental: 5 week-old male C57BL/KsJ-db/^+m mice (db/^+m mice: body weight 19 to 23 g, Japan SLC, Inc.) were purchased and individually fed in tip cages. To the db/^+m mice, normal pellet diet (CE-2) was administered under free water intake and free food intake. A body weight and a food intake amount over 24 hours were measured every day from the start of feeding. On day 3 after the start of feeding, blood was taken from an orbit after 6 hour-fasting and a blood glucose level and a blood insulin concentration were measured. The db/^+m mice were divided into two groups (10 mice per each group) so that a body weight, a 24 hour-food intake amount, a blood glucose level, and a blood insulin concentration were equal, and defined to be a control group and a baclofen treated group. […] A food intake amount and a body weight of the db/^+m mice were measured over time, and a rectal temperature was measured 5 weeks after the start of the administration. […]
# R-baclofen and S-baclofen were administered to db/db/mice and (±)-baclofen was administered to db/^+m mice respectively for 5 weeks, and rectal temperatures were then continuously measured for 3 days at 20 o'clock immediately before the dark period when feed intake was started in the mice. […] That is, the rectal temperatures were measured by using a digital thermistor (manufactured by NATSUME SEISAKUSHO CO., LTD.).
# [2] = system: DIO mice; experiment: Rectal temperature, oxygen consumption and motor activity, DIO mice
# Experimental: (±)-baclofen was orally administered to db/db mice and DIO mice for 5 weeks and rectal temperatures were measured 5 weeks after the start of the administration, and oxygen consumptions and motor activity were measured by using a small animal metabolism measuring system (model MK-5000: Muromachi Kikai Co., Ltd.).
# [3] = system: UCP1 mRNA; experiment: Real time PCR, UCP1 mRNA in brown adipose tissues, db/db mice; details: after 5 week-administration, 1.1 and 2.7 mg/dl in drinking water
# Experimental: 5 week-old male C57BL/KsJ-db/db mice (db/db mice: body weight 19 to 25 g, Japan SLC, Inc.) were purchased and individually fed in tip cages. For the db/db mice, normal pellet diet (CE-2) was administered under free water intake and free food intake. A body weight and a food intake amount over 24 hours were measured every day from the start of feeding. On day 3 after the start of feeding, blood was taken from an orbit after 6 hour-fasting and a blood glucose level and a blood insulin concentration were measured. […] A food intake amount and a body weight were measured over time during the period of 5 week-administration of (±)-baclofen, blood was taken after the end of the 5-week administration, and the db/db mice were sacrificed by cervical luxation. […] The epididymal white adipose tissues and subcutaneous white adipose tissues were measured in weights, and then fixed in 4% formaldehyde and preserved at 4° C.
# RNA was taken out from the brown adipose tissues preserved at −80° C., and expression of a UCP-1 mRNA was examined in the real time quantitative […] method by using ABI PRISM (registered trademark) 7700 Sequence Detection System.
# [4] = system: lean mice; experiment: Food intake amount and body weight, 5 week-continuous oral administration, non-obese lean mice; details: lean mice (normal diet); oral 5 weeks; (±)-baclofen 5 mg/kg/day, SKF97541 0.3 mg/kg/day, 3-APPA 5 mg/kg/day
# Experimental: 5 week-old male C57BL/6N mice (body weight 17 to 20 g, CLEA Japan, Inc.) were purchased and individually fed in tip cages. To the mice, normal pellet diet (CE-2) was administered under free water intake and free food intake. A body weight and a food intake amount over 24 hours were measured every day from the start of feeding. On day 3 after the start of feeding, blood was taken from an orbit after 6 hour-fasting and a blood glucose level and a blood insulin concentration were measured. The mice were divided into a control group and a baclofen treated group (10 mice per each group) so that a body weight, a 24 hour-food intake amount, a blood glucose level, and a blood insulin concentration were equal, and diet induced-obesity (DIO) was started to be induced by administration of high fat diet (High Fat Diet 32, energy fat ratio 60%, CLEA Japan, Inc.) (DIO mice). At the same time as the start of administering the high fat diet, (±)-baclofen was dissolved in drinking water and 5 week-continuous oral administration was started in a dosage of 5 mg per 1 kg of a body weight in 1 day (5 mg/kg/day). A food intake amount and a body weight were measured over time during the 5 week-administration period. (±)-baclofen (5 mg/kg/day) was orally administered also to C57BL/6N mice (lean mice) that are non-obese mice to which normal diet was administered in the same manner as described above, and a food intake amount and a body weight were measured over time.
# 5 week-old male C57BL/6N mice (body weight 17 to 20 g, CLEA Japan, Inc.) were purchased and individually fed in tip cages. Normal pellet diet (CE-2) was administered to the mice under free water intake and free food intake. A body weight and a food intake amount over 24 hours were measured every day from the start of feeding. On day 3 after the start of feeding, blood was taken from an orbit after 6 hour-fasting and a blood glucose level and a blood insulin concentration were measured. The mice were divided into a control group, an SKF97541 treated group and a 3-APPA treated group (10 mice per each group) so that a body weight, a 24 hour-food intake amount, a blood glucose level, and a blood insulin concentration were equal, and diet induced-obesity (DIO) was started to be induced by administration of high fat diet (High Fat Diet 32, energy fat ratio 60%, CLEA Japan, Inc.) (DIO mice). At the same time as the start of administering the high fat diet, SKF97541 (0.3 mg/kg/day) or 3-APPA (5 mg/kg/day) was dissolved in drinking water and 5 week-continuous oral administration was started. A food intake amount and a body weight were measured over time during the 5 week-administration period. SKF97541 (0.3 mg/kg/day) or 3-APPA (5 mg/kg/day) was orally administered also to C57BL/6N mice (lean mice) to which normal diet was administered in the same manner as described above, and a food intake amount and a body weight were measured over time.
compound,measurement,setting,value
"NCC(CC(=O)O)c1ccc(Cl)cc1 (racemic) [(±)-baclofen, (RS)-4-amino-3-(4-chlorophenyl)butanoic acid]",rectal temperature,[1],did not give a significant effect
same,oxygen consumption,[2]; (±)-baclofen oral 5 weeks,significantly increased
same,body temperature (rectal),"[2]; (±)-baclofen oral, 5 weeks after start of administration",significantly raised
same,UCP1 mRNA expression in brown adipose tissues,[3],Significant increases
same,body weight,[4],did not give significant effects
same,food intake amount,[4],did not give significant effects

# — patent publication US20100197789A1, “ANTI-OBESITY AGENT AND USE THEREOF” (National University Corporation Nagoya University, priority 2006, published 2010)
